Source: paper PMC8996404, “The pharmacokinetics of buserelin after intramuscular administration in pigs and cows” (BMC Veterinary Research, 2022)
Where two headings read alike, the source gives them in different places. Marks after values point to notes of the source that are not given here.

Columns and labels:
[1] = Stock solution stability test of buserelin; format: physicochemical; details: stock solution in methanol, concentration 100 ng/mL, UPLC-MS/MS
Description: A standard stock solution (1 mg/mL) was prepared by dissolving 2 mg standard buserelin in 2 mL methanol. This solution was stored in brown glass bottles at -20 ℃. Working solutions were prepared by diluting the stock solution with methanol.
Selectivity has been assessed by comparing the chromatograms of blank plasma samples and those of corresponding items with buserelin to exclude the interfering peaks. The calibration curve was established by spiking the blank matrix with known concentration of buserelin. Limit of detection (LOD) and Limit of quantification (LOQ) were determined as the concentrations of buserelin which produced signal/ noise ratio of 3 and 10, respectively. For linearity of this method, calibration curves were generated by least squares regression method with a weighting factor and regression coefficient. Recovery was determined by comparing the analytical results of the extracted quality control (QC) samples with pure standard solution. The accuracy was assessed as the percentage of the measured concentration to the nominal standard concentration. The precision was expressed by coefficient of variation. Stability was assessed by autosampler, benchtop, freeze–thaw, and stock solution test. […]

[2] = Plasma pharmacokinetics of buserelin after i.m. administration in pigs; format: in vivo; details: for MRT: pig, 1 mg per pig
Description: The UPLC-MS/MS system (Waters Acquity UPLC and Waters Quattro Premier, Waters Co., USA) and the chromatographic column (Agilent Poroshell 120 EC-C18, 4.6 × 100 mm, 2.7 µm) were used in this study. The separation was performed with 0.1% formic acid in water (mobile phase solvent A) and 0.1% formic acid in acetonitrile (solvent B) with a flow rate of 0.6 mL/min. The gradient elution program was optimized as follow: 75% A (0–0.5 min), 10% A (5–7 min) 75% A (7.1–10 min). The sample was injected at a volume of 5 µL at 30℃. The mass spectrometer was operated in the positive ion detection mode with the capillary voltage set at 5.5 kV and the source temperature was 550 ℃. Others parameters were as follows: nebulizer gas pressure was 55 psi, ion source gas pressure was 60 psi, curtain gas pressure was 30 psi, declustering potential was 68 V, entrance potential was 10 V, and collision cell exit potential was 13 V.
Five healthy adult female Danish Landrance × Yorkshire × Duroc pigs (100–120 days, 50–60 kg, Ningbo Kuangdai Husbandry Co., Ltd. Ningbo China) and five healthy adult female Holstein cows (1.5–2 years, 440–500 kg, Ningbo Milk Group Co., Ltd. Ningbo China) were randomly selected to use in this research. All animals were examined by a local veterinarian with regard to physical, hematologic, and biochemical conditions during the two-week adaptation period. The two protocols used in this study were reviewed and approved by the Institutional Animal Care and Use Committee of China Agricultural University (pigs: 11605–20-D-007; cows: 11605–20-B-003). Buserelin injection solution (0.5 mg/mL, 10 mL) was acquired from Ningbo Sansheng Pharmaceutical Company. In order to avoid introducing bias results from feeding, each animal in the study fasted for approximately 12 h. Each pig received 1 mg buserelin injection solution (about 0.018 mg/kg), and each cow received 3 mg (about 0.0064 mg/kg). During the entire experiment, water was available ad libitum. Adverse symptoms were recorded and evaluated. Blood samples of 5 mL were collected into heparinized tube (pigs: anterior vena cava; cows: vena jugularis interna) at 0, 0.083, 0.167, 0.333, 0.5, 0.75, 1, 1.5, 2, 3, 4, 5, 6, 7, and 8 h after i.m. administration. The blood samples were centrifuged for 5 min at 2775 × g. Plasma samples were stored in -20 ℃ until analysis (within 21 days of collection).
Frozen plasma samples were thawed and vortexed, and 500 µL plasma and 1 mL 0.1% formic acid in acetonitrile were mixed together. After 10 min ultrasonic treatment, the samples were centrifuged for 10 min at 11,100 × g. The upper layer was collected and the remainder was treated twice. These two supernatants were added together, the samples were evaporated via nitrogen gas at 40 ℃, and redissolved in 2.5 mL 0.1% formic acid in acetonitrile-0.1% formic acid in water (1:3 v/v). After filtered through a 0.22 µm microbore cellulose membrane, the samples were collected and bottled to UPLC-MS/MS system for analysis.
Plasma concentrations of buserelin were analyzed using the established method, and the pharmacokinetic parameters were calculated via a non-compartmental analysis model 200 in WinNonlin software (WinNolin 8.1.0 Certara, Pharsight, Mountain View, CA, USA) and expressed in mean ± standard deviation (SD), and no statistical tests were applied.

[3] = Stability of buserelin in pig plasma (autosampler, benchtop, freeze–thaw); format: in vitro ADME; details: for Stability, Accuracy Mean ± SD: pig plasma, UPLC-MS/MS
Description: (§1) Selectivity has been assessed by comparing the chromatograms of blank plasma samples and those of corresponding items with buserelin to exclude the interfering peaks. The calibration curve was established by spiking the blank matrix with known concentration of buserelin. Limit of detection (LOD) and Limit of quantification (LOQ) were determined as the concentrations of buserelin which produced signal/ noise ratio of 3 and 10, respectively. For linearity of this method, calibration curves were generated by least squares regression method with a weighting factor and regression coefficient. Recovery was determined by comparing the analytical results of the extracted quality control (QC) samples with pure standard solution. The accuracy was assessed as the percentage of the measured concentration to the nominal standard concentration. The precision was expressed by coefficient of variation. Stability was assessed by autosampler, benchtop, freeze–thaw, and stock solution test. The matrix effect was obtained with the area of post-extraction blank plasma samples added with buserelin at two levels with the equivalent concentration standard solutions that added with initiate mobile phase.

[4] = cited from earlier work
Excerpt: After being approved by the European Medicines Agency (EMA) in 1995 [1], there are some pharmacokinetic studies of buserelin been reported in humans and rats following subcutaneous (s.c.), intranasal (i.n.), or intravenous (i.v.) routes. […] High plasma concentration, high bonding rate, means more drugs cannot across the membrane and barrier. Therefore, binding changes can affect the distribution of drugs. Because protein binding of buserelin is about 15% [2], it is proportional to the body volume and body weight and animals using in this study had larger volume of body water or extracellular water. It has been repo ...

[5] = Stability of buserelin in cow plasma (autosampler, benchtop, freeze–thaw); format: in vitro ADME; details: UPLC-MS/MS
Description: as §1

[6] = female, Danish Landrance × Yorkshire × Duroc, im, single i.m. dose 1 mg per pig, plasma, mean ± SD, n = 5
[7] = single i.m. dose 1 mg per pig, plasma, mean ± SD, n = 5

CCNC(=O)[C@@H]1CCCN1C(=O)[C@H](CCCNC(=N)N)NC(=O)[C@H](CC(C)C)NC(=O)[C@@H](COC(C)(C)C)NC(=O)[C@H](Cc1ccc(O)cc1)NC(=O)[C@H](CO)NC(=O)[C@H](Cc1c[nH]c2ccccc12)NC(=O)[C@H](Cc1cnc[nH]1)NC(=O)[C@@H]1CCC(=O)N1 [buserelin, Buserelin]
Stock solution stability, Mean ± SD ([1]; column Cow): 2.51 ± 0.05 Peak area (10^5)
Stock solution stability, Mean ± SD ([1]; column Pig): 2.50 ± 0.05 Peak area (10^5)
tmax ([2]; female, Danish Landrance × Yorkshire × Duroc, im, single i.m. dose 1 mg per pig (about 0.018 mg/kg), plasma, UPLC-MS/MS, non-compartmental, mean ± SD, n = 5): 34.2 ± 10.8 min
AUC(0-t) ([2]; female, Danish Landrance × Yorkshire × Duroc, im, single i.m. dose 1 mg per pig, plasma, 0 to last measurement point, mean ± SD, n = 5): 0.025 ± 0.00693 µg·h/mL
Cmax ([2]; female, Danish Landrance × Yorkshire × Duroc, im, single i.m. dose 1 mg per pig, plasma, UPLC-MS/MS, non-compartmental, mean ± SD, n = 5): 0.011 ± 0.00204 µg/mL
AUC(0-inf) [2, 6]: 0.0258 ± 0.00675 µg·h/mL
CL/F [2, 6]: 686 mL/min
Vd/F [2, 6]: 80.5 ± 43.9 L
half-life ([2]; female, Danish Landrance × Yorkshire × Duroc, im, single i.m. dose 1 mg per pig, plasma, non-compartmental, mean ± SD, n = 5, read-out: t1/2 (elimination half-time) (converted)): 77.4 ± 24 min
MRT ([2]; female, Danish Landrance × Yorkshire × Duroc, plasma, im, single i.m. dose 1 mg per pig, plasma, mean ± SD, n = 5, read-out: MRT0-t): 128 ± 16.2 min
MRT ([2]; female, Danish Landrance × Yorkshire × Duroc, plasma, im, single i.m. dose 1 mg per pig, plasma, mean ± SD, n = 5, read-out: MRT0-∞): 141 ± 13.8 min
Cmax/D ([2]; single i.m. dose 1 mg per pig (about 0.018 mg/kg), rate of Cmax to dosage, mean ± SD, n = 5): 610.19 ± 79.93 ng/mL/mg/kg
Adverse effects ([2]; single i.m. dose 1 mg per pig, n = 5): No adverse effects were observed
AUMClast [2, 7]: 59.59 ± 16.54 h × h × ng/mL
ka (absorption rate constant) [2, 7]: 0.48 ± 0.07 h⁻¹
Stability, Accuracy Mean ± SD ([3]; autosampler, concentration 0.5 ng/mL): 0.51 ± 0.04
Stability, Accuracy Mean ± SD ([3]; autosampler, concentration 20 ng/mL): 19.70 ± 2.32
Stability, Accuracy Mean ± SD ([3]; benchtop, concentration 0.5 ng/mL): 0.47 ± 0.02
Stability, Accuracy Mean ± SD ([3]; benchtop, concentration 20 ng/mL): 19.72 ± 1.61
Stability, Accuracy Mean ± SD ([3]; freeze–thaw, concentration 0.5 ng/mL): 0.51 ± 0.04
Stability, Accuracy Mean ± SD ([3]; freeze–thaw, concentration 20 ng/mL): 19.95 ± 1.12
Stability during autosampler, benchtop, freeze–thaw, and stock solution test ([3]; summary statement for pig plasma, cow plasma and stock solution (Table 3)): stable
tmax ([4]; health volunteers, single dose 5 µg s.c. ref 3): 42 min
tmax ([4]; health volunteers, single dose 150 µg i.n. ref 3): 58 min
tmax ([4]; health volunteers, single dose 300 µg i.n. ref 3): 43.8 min
tmax ([4]; health volunteers, single dose 450 µg i.n. ref 3): 38.8 min
tmax ([4]; health volunteers, single dose 500 µg i.v. ref 3): 20 min
elimination half-time ([4]; human, regardless of the administration route ref 2, 3): 72 to 120 min
tmax ([4]; rats (anesthetized), single dose of 0.1 mg/kg i.n. ref 18): 115 ± 25.2 min
rapid initial half time / t1/2 ([4]; rats, i.v. ref 1): 5 min
t1/2 ([4]; rats, single dose of 6 mg/kg s.c. injection ref 13): 42 min
Stability, Accuracy Mean ± SD ([5]; autosampler, concentration 0.25 ng/mL): 0.24 ± 0.01
Stability, Accuracy Mean ± SD ([5]; autosampler, concentration 4 ng/mL): 3.90 ± 0.30
Stability, Accuracy Mean ± SD ([5]; benchtop, concentration 0.25 ng/mL): 0.25 ± 0.02
Stability, Accuracy Mean ± SD ([5]; benchtop, concentration 4 ng/mL): 3.87 ± 0.41
Stability, Accuracy Mean ± SD ([5]; freeze–thaw, concentration 0.25 ng/mL): 0.26 ± 0.02
Stability, Accuracy Mean ± SD ([5]; freeze–thaw, concentration 4 ng/mL): 3.95 ± 0.34
